Assay results published in US8128913B1, “Sunscreen composition with enhanced UV-A absorber stability and methods” (Skinvisible Pharmaceuticals, Inc., priority 2007, dated 2012).

How the values were obtained:
[1] = photostability of sunscreen film on polyethylene under UV light at 365 nm, extraction and C18 chromatography; type: physicochemical; conditions: Example 1 composition (no tricontanyl polymer), between 4 and 8 hours of UV exposure, 2340 Watts/m^2
Method: To test the photostability of the sunscreen composition, 200-250 μl of the sunscreen composition was spread evenly over a 25 cm^2 piece of polyethylene film. The amount of sunscreen preparation was determined by weight, and the polyethylene film was dried for 1 hour at 35° C. After drying the film was exposed to […] (2340 Watts/m^2) of UV light at 365 nm for 0, 2, 4, 6 and 8 hours. Following light exposure, sunscreen was extracted with ethanol containing 1% acetic acid. Extracts were separated and quantitated with a C18 column with a methanol:water linear gradient.
The composition contains 3 wt. % avobenzone, 6 wt. % octocrylene, and 4 wt. % oxybenzophenone as sunscreen agents. Photo stability test of the composition was carried out as described in Example 1.

[2] = in vivo; cited from earlier work

Compound | loss of sunscreen agent with UV exposure [1] | dermal toxicity [2]
COc1ccc(C(=O)CC(=O)c2ccc(C(C)(C)C)cc2)cc1 [avobenzone] | ~50% | –
Poly(vinylpyrrolidone/1-hexadecene) [PVPH] | – | no demonstrable dermal toxicity
Poly(vinylpyrrolidone/eicosene) [PVPE] | – | no demonstrable dermal toxicity
